Results on eight compounds are retold here after patent publication US10292968B2, “Substituted heterocycles as bromodomain inhibitors” (Zenith Epigenetics Ltd., priority 2014, dated 2019).

Assay [1] concerns MV4-11 cells. Briefly: Inhibition of cell proliferation in MV4-11 cells (Cell Titer Aqueous One). The class given is cell-based. To be noted: Human AML MV-4-11 cells, 72 h; for IC50: MV4-11. The procedure:
MV4-11 cells (CRL-9591) were plated at a density of 5×10^4 cells per well in 96 well flat bottom plates and treated with increasing concentrations of test compound or DMSO (0.1%) in IMDM media containing 10% FBS and penicillin/streptomycin. Triplicate wells were used for each concentration and a well containing only media was used as a control. Plates were incubated at 37° C., 5% CO2 for 72 h before adding 20 μL of the Cell Titer Aqueous One Solution (Promega) to each well and incubated at 37° C., 5% CO2 for an additional 3-4 h. The absorbance was read at 490 nm in a spectrophotometer and the percentage of cell titer relative to DMSO-treated cells was calculated after correcting for background by subtracting the blank well's signal. IC50 values were calculated using the GraphPad Prism software.

Assay [2] deals with T1, Brd4 bromodomain 1 (BRD4(1)) (Homo sapiens, UniProt O60885).
T1 construct: N-terminally His-tagged bromodomains (BRD4(1) at 20 nM and BRD4(2) at 100 nM); made in house; host or cells: E. coli BL21(DE3)
Briefly: AlphaScreen inhibition of tetra-acetylated histone H4 binding to BRD4(1). To be noted: BRD4(1) at 20 nM, tetra-acetylated histone H4 peptide, 30 min incubation; read-out: Alpha Screen BRD4(1). As for the experimental part:
(§1) Proteins were cloned and overexpressed with a N-terminal 6×His tag, then purified by nickel affinity followed by size exclusion chromatography. Briefly, E. coli BL21(DE3) cells were transformed with a recombinant expression vector encoding N-terminally Nickel affinity tagged bromodomains from Brd2, Brd3, Brd4. Cell cultures were incubated at 37° C. with shaking to the appropriate density and induced overnight with IPTG. The supernatant of lysed cells was loaded onto Ni-IDA column for purification. Eluted protein was pooled, concentrated and further purified by size exclusion chromatography. Fractions representing monomeric protein were pooled, concentrated, aliquoted, and frozen at −80° C. for use in subsequent experiments.
(§2) Binding of tetra-acetylated histone H4 peptide (Millipore) and BET bromodomains was confirmed by Amplified Luminescent Proximity Homogenous Assay (AlphaScreen). N-terminally His-tagged bromodomains (BRD4(1) at 20 nM and BRD4(2) at 100 nM) and biotinylated tetra-acetylated histone H4 (10-25 nM) were incubated in the presence of nickel chelate acceptor beads and streptavidin donor beads (PerkinAlmer, 6760000K) added to a final concentration of 2 μg/ml under green light in a white 96 well microtiter plate (Greiner). For inhibition assays, serially diluted compounds were added to the reaction mixtures in a 0.1% final concentrations of DMSO. Final buffer concentrations were 50 mM HEPES, 100 mM NaCl and 0.1% BSA buffer, pH 7.4 and optimized to 30 min incubation time. Assay plates were read at 570 nm on a Synergy H4 Plate Reader (Biotek). IC50 values were determined from a dose response curve.
A general note: Alpha assays give light when donor and acceptor beads are brought close together.

Assay [3] relates to hIL-6. Briefly: Inhibition of hIL-6 mRNA transcription in LPS-stimulated U937 cells. The class given is cell-based. To be noted: Homo sapiens, U-937, PMA-differentiated U937 cells, 1 h pretreatment, LPS 3 h, read-out: IL-6 activity. The procedure:
Human leukemic monocyte lymphoma U937 cells (CRL-1593.2) were plated at a density of 3.2×10^4 cells per well in a 96-well plate in 100 μL RPMI-1640 containing 10% FBS and penicillin/streptomycin, and differentiated into macrophages for 3 days in 60 ng/mL PMA ([…]) at 37° C. in 5% CO2 prior to the addition of compound. The cells were pretreated for 1 h with increasing concentrations of test compound in 0.1% DMSO prior to stimulation with 1 ug/mL lipopolysaccharide from Escherichia coli. Triplicate wells were used for each concentration. The cells were incubated at 37° C., 5% CO2 for 3 h before the cells were harvested. At time of harvest, media was removed and cells were rinsed in 200 μL PBS. Cells were harvested using the mRNA Catcher PLUS kit according to manufacturer's instructions. The eluted mRNA was then used in a one-step quantitative real-time PCR reaction using components of the RNA UltraSense™ One-Step Kit (Life Technologies) together with Applied Biosystems TaqMan® primer-probes for hIL-6 and Cyclophilin. Real-time PCR plates were run on a ViiA™7 real time PCR machine (Applied Biosystems), data was analyzed, normalizing the Ct values for hIL-6 to an internal control, prior to determining the fold expression of each sample, relative to the control.

Assay [4] has as its target T2, Brd 4 bromodomain 2 (BRD4(2)) (Homo sapiens, UniProt O60885).
T2 construct: N-terminally His-tagged bromodomains (BRD4(1) at 20 nM and BRD4(2) at 100 nM); made in house; host or cells: E. coli BL21(DE3)
Put plainly: AlphaScreen inhibition of tetra-acetylated histone H4 binding to BRD4(2). The following applies: BRD4(2) at 100 nM, tetra-acetylated histone H4 peptide, 30 min incubation; for IC50: read-out: Alpha Screen BRD4(2). As for the experimental part:
as §1, §2

For assay [5], the system named is cMYC. Put plainly: Inhibition of cMYC expression (mRNA, real-time PCR) in MV4-11 cells. Type of assay: cell-based. The following applies: Human AML MV4-11 cells, 3 h; for IC50: read-out: c-myc activity. As for the experimental part:
MV4-11 cells (CRL-9591) were plated at a density of 2.5×10^4 cells per well in 96 well U-bottom plates and treated with increasing concentrations of test compound or DMSO (0.1%) in IMDM media containing 10% FBS and penicillin/streptomycin, and incubated for 3 h at 37° C. Triplicate wells were used for each concentration. Cells were pelleted by centrifugation and harvested using the mRNA Catcher PLUS kit according to manufacturer's instructions. The eluted mRNA isolated was then used in a one-step quantitative real-time PCR reaction, using components of the RNA UltraSense™ One-Step Kit (Life Technologies) together with Applied Biosystems TaqMan® primer-probes for cMYC and Cyclophilin. Real-time PCR plates were run on a ViiA™7 real time PCR machine (Applied Biosystems), data was analyzed, normalizing the Ct values for cMYC to an internal control, prior to determining the fold expression of each sample, relative to the control.
(In qPCR the cycle at which signal appears reflects the starting amount.)

Structures can show the parent of a compound that is named as a salt.

For the compound `CC(=O)c1cccc(-c2[nH]c(-c3ccccc3)nc2-c2n[nH]c(=O)n2C2CC2)c1` [Example 1, 3-(5-(3-acetylphenyl)-2-phenyl-1H-imidazol-4-yl)-4-cyclopropyl-1H-1,2,4-triazol-5(4H)-one hydrochloride], the IC50 in assay [1] was 3 to 30 µM; in assay [2] it was at most 0.3 µM; in assay [3] it was 3 to 30 µM; in assay [4] it was 3 to 30 µM; in assay [5], 3 to 30 µM.
For `CC(=O)c1cc(-c2[nH]c(-c3ccccc3)nc2-c2n[nH]c(=O)n2C2CC2)ccc1F` [Example 8, 3-(5-(3-acetyl-4-fluorophenyl)-2-phenyl-1H-imidazol-4-yl)-4-cyclopropyl-1H-1,2,4-triazol-5(4H)-one hydrochloride], the “Cell Proliferation activity” value in assay [1] is “Not Active”. For the same compound, the IC50 in assay [2] is at most 0.3 µM; in assay [3], 3 to 30 µM. Besides, the “Alpha Screen BRD4(2)” value in assay [4] is “Not Active”. Besides, the c-myc activity result in assay [5] was “Not Active”.
Regarding `Cn1nnc2ccc(-c3[nH]c(-c4ccccc4)nc3-c3n[nH]c(=O)n3C3CC3)cc21` [Example 14, 4-cyclopropyl-3-(5-(1-methyl-1H-benzo[d][1,2,3]triazol-6-yl)-2-phenyl-1H-imidazol-4-yl)-1H-1,2,4-triazol-5(4H)-one hydrochloride], the IC50 is 3 to 30 µM in assay [1]; at most 0.3 µM in assay [2]; 3 to 30 µM in assay [3]; at most 0.3 µM in assay [4]; 3 to 30 µM in assay [5].
In the case of `Cn1ncc2ccc(-c3[nH]c(-c4ccccc4)nc3-c3n[nH]c(=O)n3C3CC3)cc21` [Example 7, 4-cyclopropyl-3-(5-(1-methyl-1H-indazol-6-yl)-2-phenyl-1H-imidazol-4-yl)-1H-1,2,4-triazol-5(4H)-one hydrochloride], the IC50 was 3 to 30 µM in assay [1], at most 0.3 µM in assay [2], 3 to 30 µM in assay [3] and 3 to 30 µM in assay [5]. In addition, the “Alpha Screen BRD4(2)” value in assay [4] is given as “Not Active”.
In the case of `CCC(=O)c1cccc(-c2[nH]c(-c3ccccc3)nc2-c2n[nH]c(=O)n2C2CC2)c1` [Example 6, 4-cyclopropyl-3-(2-phenyl-5-(3-propionylphenyl)-1H-imidazol-4-yl)-1H-1,2,4-triazol-5(4H)-one hydrochloride], the IC50 was 3 to 30 µM in assay [1], 0.3 to 3 µM in assay [2], 3 to 30 µM in assay [4] and 3 to 30 µM in assay [5].
Take `Cn1ncc2cc(-c3[nH]c(-c4ccccc4)nc3-c3n[nH]c(=O)n3C3CC3)ccc21` [Example 10, 4-cyclopropyl-3-(5-(1-methyl-1H-indazol-5-yl)-2-phenyl-1H-imidazol-4-yl)-1H-1,2,4-triazol-5(4H)-one hydrochloride]: in assay [1], the “Cell Proliferation activity” value was “Not Active”. The values for the IC50 in assay [2] and in assay [4] were 3 to 30 µM and 0.3 to 3 µM, respectively. For the same compound, the c-myc activity entry in assay [5] is recorded as “Not Active”.
In the case of `CC(=O)c1cc(F)cc(-c2[nH]c(-c3ccccc3)nc2-c2n[nH]c(=O)n2C2CC2)c1` [Example 9, 3-(5-(3-acetyl-5-fluorophenyl)-2-phenyl-1H-imidazol-4-yl)-4-cyclopropyl-1H-1,2,4-triazol-5(4H)-one hydrochloride], the IC50 in assay [1] is 3 to 30 µM; in assay [2] it was 0.3 to 3 µM; in assay [3], 3 to 30 µM; in assay [5], 3 to 30 µM. Moreover, the “Alpha Screen BRD4(2)” value in assay [4] is on record as “Not Active”.
Turning to `NC(=O)c1cccc(-c2[nH]c(-c3ccccc3)nc2-c2n[nH]c(=O)n2C2CC2)c1` [Example 4, 3-(4-(4-cyclopropyl-5-oxo-4,5-dihydro-1H-1,2,4-triazol-3-yl)-2-phenyl-1H-imidazol-5-yl) benzamide hydrochloride], the IC50 in assay [1], in assay [2] and in assay [5] was 3 to 30 µM each time. Besides, the “Alpha Screen BRD4(2)” value in assay [4] is listed as “Not Active”.
